For one test, the system named is MV-4-11. The test can be described thus: Alamar Blue cell proliferation assay, MV-4-11. Format: cell-based. As to conditions: Homo sapiens. In outline:
(§1)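 Cells plated at 4,000–5,000 per well were exposed to compound for four days at 37 °C, 5% CO2. Alamar Blue was then added and fluorescence (ex 544/em 590 nm) read after four hours of further incubation.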

The subject of another test is K-562. Description: Alamar Blue cell proliferation assay, K-562. It counts as cell-based. As to conditions: Homo sapiens. In short, it runs like this: as §1
(In general: The colour change of resazurin is a common sign of viable cells or microbes.)

The subject of test [1] is HCT-116 human colorectal carcinoma cells. The test can be described thus: Alamar Blue cell proliferation assay, HCT-116. Format: cell-based. As to conditions: HCT-116, Table 1, read-out: AB: HCT-116 IC50. The procedure: (§2) A representative cell-proliferation assay protocol using Alamar Blue dye (stored at 4° C., use 20 ul per well) is described hereafter.
(§3) a. Split and trypsinize cells.
(§4) b. Count cells using hemocytometer.
(§5) c. Plate 4,000-5,000 cells per well in 100 μl of medium and seed into a 96-well plate according to the following plate layout. Add cell culture medium only to wells B10 to B12. Wells B1 to B9 have cells but no compound added.
(§6) d. Add 100 μl of 2× drug dilution to each well in a concentration shown in the plate layout above. At the same time, add 100 μl of media into the control wells (wells B10 to B12). Total volume is 200 μl/well.
(§7) e. Incubate four (4) days at 37° C., 5% CO2 in a humidified incubator.
(§8) f. Add 20 μl Alamar Blue reagent to each well.
(§9) g. Incubate for four (4) hours at 37° C., 5% CO2 in a humidified incubator.
(§10) h. Record fluorescence at an excitation wavelength of 544 nm and emission wavelength of 590 nm using a microplate reader.
(§11) In the assays, cells are cultured with a test compound for approximately four days, the dye is then added to the cells and fluorescence of […] dye is detected after approximately four hours. Different types of cells can be utilized in the assays (e.g., HCT-116 human colorectal carcinoma cells, PC-3 human prostatic cancer cells and MiaPaca human pancreatic carcinoma cells).

The test system of a further test is MDAMB453. Description: Alamar Blue cell proliferation assay, MDAMB453. It counts as cell-based. As to conditions: Homo sapiens, MDA-MB-453, MDAMB453, Table 5, read-out: AB: MDAMB453 IC50. The procedure:
as §2, §3, §4, §5, §6, §7, §8, §9, §10, §11

In another test the target is recombinant human PIM2 (Homo sapiens, UniProt Q9P1W9). Description: PIM-2 assay (33P-ATP filter plate). Format: biochemical. To be noted: Table 5. The procedure:
PIM-2 Assay Method: Test compounds dissolved and diluted in DMSO (2 μl) were added to a reaction mixture comprising 10 μl of 5× Reaction Buffer (40 mM MOPS pH 7.0, 5 mM EDTA), 10 μl of recombinant human PIM2 solution (4 ng PIM-2 dissolved in dilution buffer (20 mM MOPS pH 7.0; EDTA 1 mM; 5% Glycerol; 0.01% Brij 35; […]; […] 2-mercaptoethanol; 1 mg/ml BSA)) and 8 ul of water. Reactions were initiated by the addition of 10 ul of ATP Solution (49% (15 mM MgCl2; 75 uM ATP) 1% ([γ-^33P]ATP: Stock 1 mCi/1000; 3000Ci/mmol (Perkin Elmer)) and 10 ul of substrate peptide solution (RSRSSYPAGT, dissolved in water at a concentration of 1 mM), Reactions were maintained for 10 min at 30° C. The reactions were quenched with 100 ul of 0.75% Phosphoric acid, then transferred to and filtered through a Phosphocellulose filter plate (Millipore, MSPH-N6B-50). After washing each well 4 times with 0.75% Phosphoric acid, scintillation fluid (20 uL) was added to each well and the residual radioactivity was measured using a Wallac luminescence counter.

A further test relates to BxPC3. Description: Alamar Blue cell proliferation assay, BxPC3. It counts as cell-based. To be noted: Homo sapiens, BXPC-3, BxPC3, Table 5, read-out: AB: BxPC3 IC50. The procedure: as §2, §3, §4, §5, §6, §7, §8, §9, §10, §11
For another test, the target named is T1, recombinant human CK2 (Homo sapiens, UniProt P68400).
T1 construct: purchased Upstate
The test can be described thus: CK2 assay (cell-free, 33P-ATP filter plate). Format: biochemical. As to conditions: Table 5. In short, it runs like this:
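Recombinant human CK2 (25 ng) with RRRDDDSDDD peptide in MOPS pH 7.2 buffer; started with ATP/MgCl2 plus [γ-33P]ATP (75 micromolar ATP in stock solution) for 10 minutes at 30 degrees C. Acid-quenched, captured on phosphocellulose filters, and incorporated radioactivity counted by scintillation.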

The target of another test is recombinant PIM-1 (Homo sapiens, UniProt P11309). Description: PIM-1 assay (33P-ATP filter plate). Format: biochemical. To be noted: Table 5; read-out: PIM1: IC50. In short, it runs like this: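 Recombinant PIM-1 (1 ng) with 100 uM KKRNRTLTK, 15 uM ATP plus [γ-33P]ATP, 10 mM Mg acetate in MOPS pH 7.0, 4% DMSO. Reaction 40 min at 23° C, quenched with phosphoric acid; labeled peptide captured on phosphocellulose filter and counted by scintillation.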

For a further test, the system named is SUM-149PT. The test can be described thus: Alamar Blue cell proliferation assay, SUM-149PT. As to conditions: Homo sapiens, SUM149PT, Table 5, read-out: AB: SUM-149PT IC50. It counts as cell-based. The procedure: as §2, §3, §4, §5, §6, §7, §8, §9, §10, §11
Test [2] concerns leukemic cells from AML patients. To be noted: Fedorov et al., PNAS 104(51); cited from earlier work.
The next test has as its system MOLM-13 (AML) xenograft. As to conditions: MOLM-13 (AML) xenograft model; 2008 AACR Abstract No. 4974; cited from earlier work.
In a further test the test system is MV-4-11 (AML) xenograft. To be noted: MV-4-11 (AML) xenograft model; 2008 AACR Abstract No. 4974; cited from earlier work.

Read-outs that look alike come from different tables or passages of the source.

One may read the IC50 as the midpoint of a concentration-inhibition curve.

recombinant human PIM2, sequence (Q9P1W9 whole entry): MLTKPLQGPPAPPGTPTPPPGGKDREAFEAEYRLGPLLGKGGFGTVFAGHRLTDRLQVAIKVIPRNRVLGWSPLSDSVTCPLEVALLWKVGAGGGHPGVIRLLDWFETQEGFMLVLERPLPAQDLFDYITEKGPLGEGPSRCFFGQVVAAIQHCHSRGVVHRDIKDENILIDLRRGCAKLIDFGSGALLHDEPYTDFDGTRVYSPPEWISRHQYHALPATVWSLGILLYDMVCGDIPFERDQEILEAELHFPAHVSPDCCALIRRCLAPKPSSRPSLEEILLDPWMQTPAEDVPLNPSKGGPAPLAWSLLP
T1 sequence (P68400 whole entry): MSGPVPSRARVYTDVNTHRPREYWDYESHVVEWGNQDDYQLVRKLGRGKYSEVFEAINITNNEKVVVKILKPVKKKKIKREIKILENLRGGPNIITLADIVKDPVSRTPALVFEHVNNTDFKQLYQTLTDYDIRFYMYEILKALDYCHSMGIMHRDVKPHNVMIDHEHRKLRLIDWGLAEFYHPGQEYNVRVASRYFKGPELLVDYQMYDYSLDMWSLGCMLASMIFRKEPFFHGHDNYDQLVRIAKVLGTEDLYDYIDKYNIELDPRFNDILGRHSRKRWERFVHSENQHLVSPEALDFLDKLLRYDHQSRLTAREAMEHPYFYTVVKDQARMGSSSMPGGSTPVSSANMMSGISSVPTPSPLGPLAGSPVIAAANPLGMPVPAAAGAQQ
T1 sequence (P67870 whole entry partner): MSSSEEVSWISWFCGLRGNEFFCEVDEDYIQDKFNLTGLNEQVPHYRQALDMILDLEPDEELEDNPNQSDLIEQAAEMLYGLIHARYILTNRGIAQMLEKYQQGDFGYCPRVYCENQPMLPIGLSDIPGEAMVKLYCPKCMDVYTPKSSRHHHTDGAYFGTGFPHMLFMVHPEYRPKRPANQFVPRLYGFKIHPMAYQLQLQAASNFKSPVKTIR
recombinant PIM-1, sequence (P11309 whole entry): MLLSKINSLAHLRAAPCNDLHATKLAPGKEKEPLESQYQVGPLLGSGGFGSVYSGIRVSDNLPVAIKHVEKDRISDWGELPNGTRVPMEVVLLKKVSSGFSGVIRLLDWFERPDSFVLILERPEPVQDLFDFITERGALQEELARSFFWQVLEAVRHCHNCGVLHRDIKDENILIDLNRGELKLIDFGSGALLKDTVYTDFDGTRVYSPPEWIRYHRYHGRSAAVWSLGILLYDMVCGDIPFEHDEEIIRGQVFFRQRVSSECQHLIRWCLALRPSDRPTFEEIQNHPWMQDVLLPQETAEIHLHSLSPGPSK

For `O=C1NC(=S)S/C1=C\c1ccc(-c2cccc(C(=O)O)c2)o1`, the IC50 in the test with MV-4-11 (MV4-11, MV-4-11, Table 1, read-out: AB: MV-4-11 IC50) was over 10 µM; with K-562 (K562, K-562, Table 1, read-out: AB: K-562 IC50) it was over 10 µM; in test [1] it was over 10 µM.
For the molecule `CN1C(=O)/C(=C/c2ccc(-c3cccc(C(=O)O)c3)o2)SC1=S`, in test [1], the IC50 is over 10 µM.
`CN1CCCN(c2cncc(-c3cc(/C=C4\SC(=O)NC4=O)ccc3F)n2)CC1`: the IC50 in the test on MDAMB453 is 1.18 µM; on recombinant human PIM2, under 0.05 µM; in the test with BxPC3 it was 6.71 µM; on recombinant human CK2 it was under 0.05 µM; on recombinant PIM-1, under 0.05 µM; with SUM-149PT it was 1.55 µM. For the same molecule, the IC50 with MV-4-11 (MV4-11, MV-4-11, Table 5, read-out: AB: MV-4-11 IC50) stood at 0.197 µM; in the test with K-562 (K562, K-562, Table 5, read-out: AB: K-562 IC50), 0.267 µM.
For the molecule `CN(C)C[C@@H]1CCn2cc(c3ccccc32)C2=C(C(=O)NC2=O)c2cn(c3ccccc23)CCO1` [Ly5333′531], in [2], the “effect on cell growth and cell death” value was “suppressed cell growth and induced cell death”.
Regarding `CN1CCC(CNc2ccc3ncc(-c4cccc(OC(F)(F)F)c4)n3n2)CC1` [SGI-1776], the tumor regression entry in the test with MOLM-13 (AML) xenograft and in the test on MV-4-11 (AML) xenograft was “significant tumor regression” throughout.
Consider `O=C(O)c1cccc(-c2ccc(/C=C3\SC(=S)N(Cc4ccccc4)C3=O)o2)c1`, for which, in test [1], the IC50 is over 10 µM.
